Results: ChEMBL document CHEMBL1147193, “New 5-substituted thiazolo[3,2-b][1,2,4]triazol-6-ones: synthesis and anticancer evaluation” (2007)

Assays:
Assay type in all cases: functional
[1] = tested on: CAKI-1; assay: Growth inhibition of human CAKI1 cells after 48 hrs by SRB protein assay; details: CAKI-1, 48 h; for TGI: read-out: Log TGI (converted)
[2] = tested on: SK-OV-3; assay: Growth inhibition of human SK-OV-3 cells after 48 hrs by SRB protein assay; details: SK-OV-3, 48 h; for TGI: read-out: Log TGI (converted)
[3] = tested on: NCI-H23; assay: Growth inhibition of human NCI-H23 cells after 48 hrs by SRB protein assay; details: NCI-H23, 48 h; for TGI: read-out: Log TGI (converted)
[4] = tested on: LOX IMVI; assay: Growth inhibition of human LOX IMVI cells after 48 hrs by SRB protein assay; details: for TGI: read-out: Log TGI (converted)
[5] = tested on: HOP-92; assay: Growth inhibition of human HOP92 cells after 48 hrs by SRB protein assay; details: HOP-92, 48 h; for TGI: read-out: Log TGI (converted)
[6] = tested on: SNB-19; assay: Growth inhibition of human SNB19 cells after 48 hrs by SRB protein assay; details: SNB-19, 48 h; for TGI: read-out: Log TGI (converted)
[7] = tested on: UACC-62; assay: Growth inhibition of human UACC62 cells after 48 hrs by SRB protein assay; details: UACC-62, 48 h; for TGI: read-out: Log TGI (converted)
[8] = tested on: SF-268; assay: Growth inhibition of human SF268 cells after 48 hrs by SRB protein assay; details: SF-268, 48 h; for TGI: read-out: Log TGI (converted)
[9] = tested on: 786-0; assay: Growth inhibition of human 786-0 cells after 48 hrs by SRB protein assay; details: 786-0, 48 h; for TGI: read-out: Log TGI (converted)
[10] = tested on: IGROV-1; assay: Growth inhibition of human IGROV1 cells after 48 hrs by SRB protein assay; details: IGROV-1, 48 h; for TGI: read-out: Log TGI (converted)
[11] = tested on: HCT-15; assay: Growth inhibition of human HCT15 cells after 48 hrs by SRB protein assay; details: HCT-15, 48 h; for TGI: read-out: Log TGI (converted)
[12] = tested on: EKVX; assay: Growth inhibition of human EKVX cells after 48 hrs by SRB protein assay; details: for TGI: read-out: Log TGI (converted)
[13] = tested on: RXF 393; assay: Growth inhibition of human RXF393 cells after 48 hrs by SRB protein assay; details: RXF 393, 48 h; for TGI: read-out: Log TGI (converted)
[14] = tested on: SNB-75; assay: Growth inhibition of human SNB75 cells after 48 hrs by SRB protein assay; details: SNB-75, 48 h; for TGI: read-out: Log TGI (converted)
[15] = tested on: SF-268; assay: Anticancer activity against human SF268 cells assessed as growth of cells at 100 uM relative to untreated cells
[16] = tested on: HL-60; assay: Growth inhibition of human HL60 cells after 48 hrs by SRB protein assay; details: HL-60, 48 h; for TGI: read-out: Log TGI (converted)
[17] = tested on: MOLT-4; assay: Growth inhibition of human MOLT4 cells after 48 hrs by SRB protein assay; details: MOLT-4, 48 h; for TGI: read-out: Log TGI (converted)
[18] = tested on: K562; assay: Growth inhibition of human K562 cells after 48 hrs by SRB protein assay; details: K562, 48 h; for TGI: read-out: Log TGI (converted)
[19] = tested on: SF-539; assay: Growth inhibition of human SF539 cells after 48 hrs by SRB protein assay; details: SF-539, 48 h; for TGI: read-out: Log TGI (converted)
[20] = tested on: DU-145; assay: Growth inhibition of human DU145 cells after 48 hrs by SRB protein assay; details: DU-145, 48 h; for TGI: read-out: Log TGI (converted)
[21] = tested on: A498; assay: Growth inhibition of human A498 cells after 48 hrs by SRB protein assay; details: A498, 48 h; for TGI: read-out: Log TGI (converted)
[22] = tested on: SR; assay: Growth inhibition of human SR cells after 48 hrs by SRB protein assay

Compound: O=C(CC1Sc2ncnn2C1=O)Nc1ccccc1 (stereo not drawn)
- GI50 [1]: 23.4 µM
- TGI [1]: 49 µM
- GI50 [2]: > 100 µM
- TGI [2]: > 100 µM
- GI50 [3]: 0.115 µM
- TGI [3]: 9.12 µM
- GI50 [4]: 25.7 µM
- TGI [4]: 53.7 µM
- GI50 [5]: 25.1 µM
- TGI [5]: 66.1 µM
- GI50 [6]: > 100 µM
- TGI [6]: > 100 µM
- GI50 [7]: > 100 µM
- TGI [7]: > 100 µM
- GI50 [8]: > 100 µM
- TGI [8]: > 100 µM
- GI50 [9]: 19.5 µM
- TGI [9]: 36.3 µM
- GI50 [10]: 25.7 µM
- TGI [10]: 66.1 µM
- GI50 [11]: 33.1 µM
- TGI [11]: > 100 µM
- TGI [12]: 64.6 µM
- GI50 [13]: 18.6 µM
- TGI [13]: 42.7 µM
- GI50 [14]: 31.6 µM
- TGI [14]: 85.1 µM
- Activity [15]: 110%

Compound: CCOC(=O)c1ccc(NC(=O)CC2Sc3ncnn3C2=O)cc1 (stereo not drawn)
- GI50 [1]: 63.1 µM
- TGI [1]: > 100 µM
- GI50 [16]: 46.8 µM
- TGI [16]: > 100 µM
- GI50 [4]: 18.2 µM
- TGI [4]: 35.5 µM
- GI50 [5]: 19.5 µM
- TGI [5]: 47.9 µM
- GI50 [6]: > 100 µM
- TGI [6]: > 100 µM
- GI50 [17]: 33.9 µM
- TGI [17]: 66.1 µM
- GI50 [7]: 40.7 µM
- TGI [7]: > 100 µM
- GI50 [8]: > 100 µM
- TGI [8]: > 100 µM
- GI50 [9]: 15.5 µM
- TGI [9]: 28.8 µM
- GI50 [11]: 20.9 µM
- TGI [11]: 52.5 µM
- GI50 [12]: 28.2 µM
- TGI [12]: 69.2 µM
- GI50 [13]: 21.4 µM
- TGI [13]: 67.6 µM
- GI50 [18]: 95.5 µM
- TGI [18]: > 100 µM
- Activity [15]: 8%

Compound: O=C(CC1Sc2ncnn2C1=O)Nc1ccc(Cl)cc1 (stereo not drawn)
- GI50 [1]: > 100 µM
- TGI [1]: > 100 µM
- GI50 [2]: > 100 µM
- TGI [2]: > 100 µM
- GI50 [3]: 23.4 µM
- TGI [3]: 70.8 µM
- GI50 [19]: 31.6 µM
- TGI [19]: 74.1 µM
- GI50 [4]: 20.4 µM
- TGI [4]: 45.7 µM
- GI50 [5]: 25.1 µM
- TGI [5]: 64.6 µM
- GI50 [6]: > 100 µM
- TGI [6]: > 100 µM
- GI50 [17]: 20 µM
- TGI [17]: 47.9 µM
- GI50 [7]: > 100 µM
- TGI [7]: > 100 µM
- GI50 [8]: > 100 µM
- TGI [8]: > 100 µM
- GI50 [9]: 20.4 µM
- TGI [9]: 43.7 µM
- GI50 [20]: > 100 µM
- TGI [20]: > 100 µM
- GI50 [10]: > 100 µM
- TGI [10]: > 100 µM
- GI50 [11]: 15.8 µM
- TGI [11]: 40.7 µM
- GI50 [12]: > 100 µM
- TGI [12]: > 100 µM
- GI50 [13]: 25.1 µM
- TGI [13]: 51.3 µM
- GI50 [18]: 19.1 µM
- TGI [18]: 43.7 µM
- Activity [15]: 107%
- GI50 [21]: > 100 µM
- TGI [21]: > 100 µM

Compound: O=c1/c(=C/c2ccc(Cl)cc2)sc2ncnn12
- GI50 [1]: 19.5 µM
- TGI [1]: 38.9 µM
- GI50 [2]: 29.5 µM
- TGI [2]: 55 µM
- GI50 [3]: 17.8 µM
- TGI [3]: 38 µM
- GI50 [19]: 10.2 µM
- TGI [19]: 21.9 µM
- GI50 [16]: 0.537 µM
- TGI [16]: 2.04 µM
- GI50 [4]: 10.7 µM
- TGI [4]: 25.1 µM
- GI50 [6]: 16.2 µM
- TGI [6]: 32.4 µM
- GI50 [17]: 1.62 µM
- TGI [17]: 8.71 µM
- GI50 [7]: 14.5 µM
- TGI [7]: 29.5 µM
- GI50 [8]: 16.2 µM
- TGI [8]: 58.9 µM
- GI50 [9]: 13.5 µM
- TGI [9]: 28.8 µM
- GI50 [20]: 12.9 µM
- TGI [20]: 32.4 µM
- GI50 [10]: 10 µM
- TGI [10]: 24.5 µM
- GI50 [11]: 12 µM
- TGI [11]: 34.7 µM
- GI50 [12]: 14.5 µM
- TGI [12]: 33.9 µM
- GI50 [13]: 5.25 µM
- TGI [13]: 18.2 µM
- GI50 [18]: 7.59 µM
- TGI [18]: 28.8 µM
- GI50 [14]: 14.1 µM
- TGI [14]: 32.4 µM
- Activity [15]: 11%
- GI50 [22]: 8.32 µM
- TGI ([22]; read-out: Log TGI (converted)): 33.9 µM
- GI50 [21]: 19.1 µM
- TGI [21]: 33.1 µM
